Laboratory results from paper PMC5769128, “Human UDP-Glucuronosyltransferase 2B4 and 2B7 Are Responsible for Naftopidil Glucuronidation in Vitro” (Frontiers in Pharmacology, 2018).
Read-outs that look alike come from different tables or passages of the source.

Key:
UGT2B7 [1] = target: T1, UGT2B7 (Homo sapiens, UniProt P16662); experiment: Kinetics of NAF enantiomer glucuronidation by recombinant UGT2B7; format: in vitro ADME; parameters: purchased BD Gentest
T1 sequence (P16662 24-529): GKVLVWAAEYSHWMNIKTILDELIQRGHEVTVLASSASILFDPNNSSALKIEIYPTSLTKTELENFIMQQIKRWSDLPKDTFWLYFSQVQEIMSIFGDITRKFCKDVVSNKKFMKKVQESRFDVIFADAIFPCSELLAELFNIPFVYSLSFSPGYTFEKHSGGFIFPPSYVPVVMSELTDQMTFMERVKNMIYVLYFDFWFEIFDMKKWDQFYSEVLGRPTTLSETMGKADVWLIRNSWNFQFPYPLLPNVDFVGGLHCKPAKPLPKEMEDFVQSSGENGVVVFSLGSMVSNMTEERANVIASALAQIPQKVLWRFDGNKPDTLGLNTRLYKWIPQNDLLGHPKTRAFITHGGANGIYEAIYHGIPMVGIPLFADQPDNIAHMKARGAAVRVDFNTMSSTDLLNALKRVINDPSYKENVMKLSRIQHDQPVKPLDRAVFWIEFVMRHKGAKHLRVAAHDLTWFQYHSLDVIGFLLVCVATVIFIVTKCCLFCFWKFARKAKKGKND
Protocol: (§1) All glucuronidation assays were conducted in an incubation volume of 200 μL. Incubations were performed at 37°C in 50 mM Tris–HCl buffer (pH 7.5) with 10 mM magnesium chloride, 1 mg protein/mL of enzyme (microsomes and recombinant human UGTs), alamethicin (100 μg of alamethicin/mg microsomal protein), and NAF enantiomers (2.5–80 μM). The reaction was initiated by the addition of UDPGA (5 mM) and incubated at 37°C in a shaking water bath for 45 min. The reaction was terminated by the addition of 200 μL of ice-cold acetonitrile containing the IS (1 μM) and then centrifuged at 5000 ×g for 10 min at 4°C. The supernatant fraction was injected into the RRLC-MS/MS apparatus. Protein concentration (0.5–2 mg/mL) and incubation time (15–180 min) were optimized in preliminary studies to be within initial linear rate conditions.
(§2) Kinetic parameters were assessed in the HLM, RLM, HKM, RKM, and recombinant human UGTs (UGT2B4, 2B7, and 1A9).

UGT2B7 [2] = target: T1, UGT2B7; experiment: Inhibition of zidovudine glucuronidation in pooled HLM; format: in vitro ADME; parameters: tissue BD Gentest; host or cells: pooled human liver microsomes; conditions: substrate zidovudine, enzyme HLM
UGT2B7 [3] = target: T1, UGT2B7; conditions: substrate zidovudine, enzyme UGT2B7
Protocol: The inhibition of UGT1A9 and UGT2B7 by NAF enantiomer was investigated using the pooled HLM, UGT1A9, and UGT2B7 with concentrations similar to that of the NAF enantiomer. Propofol, which was used as the specific substrate of UGT1A9, was added to the incubation. […] Inhibitor constants (Ki value) were estimated by fitting the expressions for competitive, non-competitive, and mixed inhibition models with Dixon plots and Lineweaver–Burk plots.

UGT2B17 = target: T2, UGT2B17 (Homo sapiens, UniProt O75795); experiment: Inhibition screening of recombinant UGTs by NAF enantiomers, UGT2B17 (4-MU); format: in vitro ADME; conditions: recombinant UGT2B17, probe 4-MU, 100 μM NAF enantiomer, read-out: Inhibition of 4-MU-G formation
T2 construct: purchased BD Gentest
T2 sequence (O75795 24-530): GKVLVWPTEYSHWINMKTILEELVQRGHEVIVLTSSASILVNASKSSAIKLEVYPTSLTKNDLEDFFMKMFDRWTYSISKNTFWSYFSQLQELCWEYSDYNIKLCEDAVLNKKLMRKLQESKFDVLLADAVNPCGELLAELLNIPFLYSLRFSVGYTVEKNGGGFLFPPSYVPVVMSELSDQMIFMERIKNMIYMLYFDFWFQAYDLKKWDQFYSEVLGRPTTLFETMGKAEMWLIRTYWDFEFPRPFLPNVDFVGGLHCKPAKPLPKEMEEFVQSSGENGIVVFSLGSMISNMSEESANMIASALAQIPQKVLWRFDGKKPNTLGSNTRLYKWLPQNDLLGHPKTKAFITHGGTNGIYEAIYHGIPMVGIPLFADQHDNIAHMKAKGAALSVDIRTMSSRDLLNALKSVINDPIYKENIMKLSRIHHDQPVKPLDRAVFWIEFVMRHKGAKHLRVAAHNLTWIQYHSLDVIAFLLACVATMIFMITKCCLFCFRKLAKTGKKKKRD
Protocol: (§3) The inhibition screening study was performed by investigating the 12 recombinant UGTs with 10 and 100 μM NAF enantiomer. […] 4-MU, as a non-specific substrate, was added to the other incubated samples. Instead of NAF enantiomers, the same volume of water was added to be the control sample. […] The formation of 4-MU-G and TFP-G produced from the 12 incubation system were analyzed by HPLC. The instrument parameters for the LC were as follows: system, Agilent 1260; Agilent Eclipse Plus C18 (2.1 mm × 50 mm, 1.8 μm, Santa Clara, CA, United States); mobile phase, methanol: 0.1% formic acid in water (0–3 min, 35:65; 3.1–4.5 min, 65:35; 4.6–5 min, 35:65); flow rate, 0.4 mL/min; column temperature, 25°C; and injection volume, 2 μL. The retention times of 4-MU, 4-MU-G, TFP, TFP-G, and MU (IS) were 1.5, 0.5, 2.2, 1.8, and 1.0 min, respectively.

[4] = Kinetics of NAF enantiomer glucuronidation by human liver microsomes; format: in vitro ADME; conditions: human, human liver microsomes, pH 7.5; NAF glucuronidation by HLM; 2.5–80 μM substrate, 45 min
Protocol: as §1, §2

[5] = system: human liver microsomes (HLM); experiment: as above; format: in vitro ADME
Protocol: as §1, §2

[6] = system: human kidney microsomes (HKM); experiment: Kinetics of NAF enantiomer glucuronidation by human kidney microsomes; format: in vitro ADME
Protocol: as §1, §2

[7] = as above; format: in vitro ADME; conditions: human, human kidney microsomes, pH 7.5; NAF glucuronidation by HKM
Protocol: as §1, §2

UGT1A1 = target: T3, UGT1A1 (Homo sapiens, UniProt P22309); experiment: Inhibition screening of recombinant UGTs by NAF enantiomers, UGT1A1 (4-MU); format: in vitro ADME; conditions: recombinant UGT1A1, probe 4-MU, 10 μM NAF enantiomer, read-out: Inhibition of 4-MU-G formation
T3 construct: purchased BD Gentest
T3 sequence (P22309 26-533): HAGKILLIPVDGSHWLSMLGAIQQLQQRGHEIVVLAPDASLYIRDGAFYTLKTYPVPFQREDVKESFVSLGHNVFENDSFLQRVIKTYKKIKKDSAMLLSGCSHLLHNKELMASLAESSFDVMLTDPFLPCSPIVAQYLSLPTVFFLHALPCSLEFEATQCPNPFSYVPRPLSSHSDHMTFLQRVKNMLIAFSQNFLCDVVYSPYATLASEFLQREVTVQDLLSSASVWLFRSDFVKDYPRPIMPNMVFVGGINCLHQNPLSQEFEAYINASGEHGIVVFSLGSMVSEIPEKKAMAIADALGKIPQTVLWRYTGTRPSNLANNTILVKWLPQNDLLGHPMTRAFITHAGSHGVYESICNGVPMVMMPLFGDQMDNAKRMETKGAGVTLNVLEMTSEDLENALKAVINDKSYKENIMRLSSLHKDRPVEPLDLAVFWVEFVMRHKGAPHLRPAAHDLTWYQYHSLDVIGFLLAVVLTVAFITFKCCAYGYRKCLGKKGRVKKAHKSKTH
Protocol: as §3

| Kinetics type (UGT2B7 [1]) | Inhibition type (UGT2B7 [2]) | Ki (UGT2B7 [2]) | Inhibition type (UGT2B7 [3]) | inhibition at 100 μM (UGT2B17) | Km at 45 min [4] | Km at 45 min [7] | inhibition at 10 μM (UGT1A1) | Structure (SMILES) | Kinetics type [5] | Kinetics type [6] |
| --- | --- | --- | --- | --- | --- | --- | --- | --- | --- | --- |
| substrate inhibition model | Competitive | 64.9 ± 7.8 µM | Competitive | > 75% | 48 µM | 40 µM | > 50% | COc1ccccc1N1CCN(C[C@@H](O)COc2cccc3ccccc23)CC1 [R(+)-NAF] | Michaelis–Menten model | Michaelis–Menten model |
| substrate inhibition model | Competitive | 35.7 ± 4.1 µM | Competitive | > 75% | 19 µM | 35 µM | > 50% | COc1ccccc1N1CCN(C[C@H](O)COc2cccc3ccccc23)CC1 [S(-)-NAF] | Michaelis–Menten model | substrate inhibition model |
